Each structure is given as a SMILES string.

For test [1], the system named is LEFCH (Leptochloa chinensis, Chinese sprangletop). Put plainly: Postemergence foliar-applied weed control, direct seeded rice, greenhouse (Example I). The settings on record: Dinebra chinensis, post-emergence, 480 h, 20 DAA, read-out: Visual Weed Control (%) Obs. The format is in vivo, Leptochloa chinensis (L.) Nees. The text has this:
(§1) Seeds or nutlets of the desired test plant species were planted in a soil matrix prepared by mixing a loam or sandy loam soil (e.g., 28.6 percent silt, 18.8 percent clay, and 52.6 percent sand, with a pH of about 5.8 and an organic matter content of about 1.8 percent) and calcareous grit in an 80 to 20 ratio. The soil matrix was contained in plastic pots with a volume of 1 quart and a surface area of 83.6 square centimeters (cm^2). When required to ensure good germination and healthy plants, a fungicide treatment and/or other chemical or physical treatment was applied. The plants were grown for 8-22 days in a greenhouse with an approximate 14 h photoperiod which was maintained at about 29° C. during the day and 26° C. during the night. Nutrients (Peters Excel® 15-5-15 5-Ca 2-Mg and iron chelate) were applied in the irrigation solution as needed and water was added on a regular basis. Supplemental lighting was provided with overhead metal halide 1000-Watt lamps as necessary. The plants were employed for testing when they reached the first through fourth true leaf stage.
(§2) Treatments consisted of the acid or esters of 4-amino-3-chloro-5-fluoro-6-(4-chloro-2-fluoro-3-methoxy-phenyl)pyridine-2-carboxylic acid (Compound A), each formulated as an SC, and various herbicidal components alone and in combination. Forms of compound A were applied on an acid equivalent basis.
(§3) Other herbicidal components were applied on an active ingredient basis and included acetolactate synthase (ALS)-inhibiting herbicides (sulfonylurea chemical class) azimsulfuron formulated as Gulliver®, bensulfuron-methyl formulated as Londax® 60DF, cyclosulfamuron (technical material), ethoxysulfuron formulated as Sunrice® 15 WDG, flazasulfuron formulated as Katana®, flucetosulfuron formulated as Sukedachi® 1KG G, foramsulfuron formulated as Option®, imazosulfuron formulated as Brazzos® WG, iodosulfuron-methyl-sodium formulated as Hussar®, metsulfuron-methyl formulated as Lorate®, nicosulfuron formulated as Accent®, orthosulfamuron formulated as Strada® WG, primisulfuron-methyl (technical material), propyrisulfuron formulated as Zeta One®, rimsulfuron formulated as Matrix® WG, sulfometuron-methyl formulated as Oust®, and trifloxysulfuron-sodium formulated as Monument® 75WG.
(§4) Treatment requirements were calculated based upon the rates being tested, the concentration of active ingredient or acid equivalent in the formulation, and a 12 mL application volume at a rate of 187 L/ha.
(§5) For treatments comprised of formulated compounds, measured amounts of compounds were placed individually in 25 mL glass vials and diluted in a volume of 1.25% (v/v) Agri-Dex® crop oil concentrated to obtain 12× stock solutions. […] Application solutions were prepared by adding an appropriate amount of each stock solution (e.g., 1 mL) and diluted to the appropriate final concentrations with the addition of 10 mL of an aqueous mixture of 1.25% (v/v) crop oil concentrate so that the final spray solutions contained 1.25+/−0.05% (v/v) Agrcrop oil concentrate.
(§6) For treatments comprised of formulated and technical compounds, weighed amounts of the technical materials were placed individually in 25 mL glass vials and dissolved in a volume of 97:3 v/v acetone/DMSO to obtain 12× stock solutions, and measured amounts of the formulated compounds were placed individually in 25 mL glass vials and diluted in a volume of 1.25% (v/v) crop oil concentrate to obtain 12× stock solutions. […] Application solutions were prepared by adding an appropriate amount of each stock solution (e.g., 1 mL) and diluted to the appropriate final concentrations with the addition of an appropriate amount of an aqueous mixture of 1.5% (v/v) crop oil concentrate so that the final spray solutions contained 1.25% (v/v) crop oil concentrate. […]

Test [2] concerns CYPIR (Cyperus iria, rice flatsedge). The test is described as above. As to conditions: 20 DAA. The format is in vivo, Cyperus iria L.
From the text: as §1, §2, §3, §4, §5, §6

Test [3] has as its system DIGSA (Digitaria sanguinalis, large crabgrass). Described as above. The settings on record: 20 DAA. The format is in vivo, Digitaria sanguinalis (L.) Scop.
From the text: as §1, §2, §3, §4, §5, §6

Test [4] deals with CYPES (Cyperus esculentus, yellow nutsedge). Described as above. The format is in vivo, Cyperus esculentus L. The settings on record: 20 DAA.
From the text: as §1, §2, §3, §4, §5, §6

In test [5] the test system is ECHOR (Echinochloa oryzoides, early watergrass). Put plainly: In-water applied weed control, transplanted paddy rice, greenhouse (Example II). The format is in vivo, Echinochloa oryzoides (Ard.) Fritsch. As to the method:
(§7) Weed seeds or nutlets of the desired test plant species were planted in puddled soil (mud) prepared by mixing a shredded, non-sterilized mineral soil (50.5 percent silt, 25.5 percent clay, and 24 percent sand, with a pH of about 7.6 and an organic matter content of about 2.9 percent) and water at a 1:1 volumetric ratio. The prepared mud was dispensed in 365 mL aliquots into 16-ounce (oz.) non-perforated plastic pots with a surface area of 86.59 square centimeters (cm^2) leaving a headspace of 3 centimeters (cm) in each pot. Rice seeds were planted in Sun Gro MetroMix® 306 planting mixture, which typically has a pH of 6.0 to 6.8 and an organic matter content of about 30 percent, in plastic plug trays. Seedlings at the second or third leaf stage of growth were transplanted into 860 mL of mud contained in 32-oz. non-perforated plastic pots with a surface area of 86.59 cm^2 4 days prior to herbicide application. The paddy was created by filling the headspace of the pots with 2.5 to 3 cm of water. When required to ensure good germination and healthy plants, a fungicide treatment and/or other chemical or physical treatment was applied. The plants were grown for 4-22 days in a greenhouse with an approximate 14 h photoperiod which was maintained at about 29′C during the day and 26° C. during the night. Nutrients were added as Osmocote® (19:6:12, N:P:K+minor nutrients) at 2 g per 16-oz. pot and 4 g per 32-oz. pot. Water was added on a regular basis to maintain the paddy flood, and supplemental lighting was provided with overhead metal halide 1000-Watt lamps as necessary. The plants were employed for testing when they reached the first through fourth true leaf stage.
(§8) Treatments consisted of the acid or esters of 4-amino-3-chloro-5-fluoro-6-(4-chloro-2-fluoro-3-methoxy-phenyl)pyridine-2-carboxylic acid (compound A) each formulated as an SC and various herbicidal components alone and in combination. Forms of compound A were applied on an acid equivalent basis.
(§9) Other herbicidal components were applied on an active ingredient basis and included acetolactate synthase (ALS)-inhibiting herbicides (sulfonylurea chemical class), azimsulfuron formulated as Gulliver®, bensulfuron-methyl formulated as Londax® 60DF, cyclosulfamuron (technical grade materail), ethoxysulfuron formulated as Sunrice® 15 WDG, flucetosulfuron formulated as Sukedachi® 1KG G, imazosulfuron formulated as Brazzos®, metsulfuron-methyl formulated as Lorate®, nicosulfuron formulated as Accent®, orthosulfamuron formulated as Strada® WG, propyrisulfuron formulated as Zeta One®, and rimsulfuron formulated as Matrix® WG.
(§10) Treatment requirements for each compound or herbicidal component were calculated based upon the rates being tested, the concentration of active ingredient or acid equivalent in the formulation, an application volume of 2 mL per component per pot, and an application area of 86.59 cm^2 per pot.
(§11) For formulated compounds, a measured amount was placed in an individual 100 or 200 mL glass vial and was dissolved in a volume of 1.25% (v/v) Agri-Dex® crop oil concentrate to obtain application solutions.
(§12) For technical grade compounds, a weighed amount was placed in an individual 100 to 200 mL glass vial and was dissolved in a volume of acetone to obtain concentrated stock solutions. […] The concentrated stock solutions obtained were diluted with an equivalent volume of an aqueous mixture containing 2.5% (v/v) crop oil concentrate so that the final application solutions contained 1.25% (v/v) crop oil concentrate.
(§13) Applications were made by injecting with a pipetter appropriate amounts of the application solutions, individually and sequentially, into the aqueous layer of the paddy. Control plants were treated in the same manner with the solvent blank. Applications were made so that all treated plant material received the same concentrations of acetone and crop oil concentrate. […]

Test [6] deals with LEFCH (Leptochloa chinensis, Chinese sprangletop). The description is as above. As to conditions: Table 43, 17.5 gai/ha alone. The format is in vivo, Leptochloa chinensis (L.) Nees. As to the method:
as §7, §8, §9, §10, §11, §12, §13

The test system of test [7] is CYPRO (Cyperus rotundus, purple nutsedge). Described as above. The format is in vivo, Cyperus rotundus L. The protocol: as §7, §8, §9, §10, §11, §12, §13
Test [8] concerns BRAPP (Brachiaria platyphylla, broadleaf signalgrass). The test is described as follows: Postemergence foliar-applied weed control, direct seeded rice, greenhouse (Example I). The format is in vivo, Brachiaria platyphylla (Griseb.) Nash. As to conditions: Urochloa platyphylla, post-emergence, 480 h, 20 DAA, read-out: Visual Weed Control (%) Obs.
From the text: as §1, §2, §3, §4, §5, §6

Test [9] deals with SCPMA (Bolboschoenus maritimus or Schoenoplectus maritimus, sea clubrush). The test is described as follows: In-water applied weed control, transplanted paddy rice, greenhouse (Example II). The format is in vivo, Bolboschoenus maritimus (L.) Palla. The protocol:
as §7, §8, §9, §10, §11, §12, §13

Test [10] concerns CIRAR (Cirsium arvense, Canada thistle). Put plainly: Post-emergence foliar-applied weed control in cereal crops, greenhouse (Example III). The format is in vivo, Cirsium arvense (L.) Scop. As to conditions: Cirsium arvense, post-emergence; Table 58 (cereal); foliar-applied; after 20-22 days; 3.75 gai/ha alone; read-out: Weed Control CIRAR Obs. The protocol:
Seeds of the desired test plant species were planted in Sun Gro MetroMix® 306 planting mixture, which typically has a pH of 6.0 to 6.8 and an organic matter content of about 30 percent, in plastic pots with a surface area of 103.2 square centimeters (cm^2). When required to ensure good germination and healthy plants, a fungicide treatment and/or other chemical or physical treatment was applied. The plants were grown for 7-36 days in a greenhouse with an approximate 14 hour photoperiod which was maintained at about 18° C. during the day and 17° C. during the night. Nutrients and water were added on a regular basis and supplemental lighting was provided with overhead metal halide 1000-Watt lamps as necessary. The plants were employed for testing when they reached the second or third true leaf stage.
Treatments consisted of the benzyl ester of 4-amino-3-chloro-5-fluoro-6-(4-chloro-2-fluoro-3-methoxy-phenyl)pyridine-2-carboxylic acid (Compound A), formulated as an SC (suspension concentrate), and a second cereal herbicide alone and in combination.
Measured aliquot of benzyl ester of 4-amino-3-chloro-5-fluoro-6-(4-chloro-2-fluoro-3-methoxy-phenyl)pyridine-2-carboxylic acid (Compound A) was placed in 25 milliliter (mL) glass vials and diluted in a volume of 1.25% (v/v) Agri-dex crop oil concentrated to obtain stock solutions. Compound requirements are based upon a 12 mL application volume at a rate of 187 liters per hectare (L/ha). Spray solutions of the second cereal herbicide and experimental compound mixtures were prepared by adding the stock solutions to the appropriate amount of dilution solution to form 12 mL spray solution with active ingredients in two- and three-way combinations. Formulated compounds were applied to the plant material with an overhead Mandel track sprayer equipped with an 8002E nozzle calibrated to deliver 187 L/ha over an application area of 0.503 square meters (m^2) at a spray height of 18 inches (46 cm) above average plant canopy. Control plants were sprayed in the same manner with the solvent blank.
The treated plants and control plants were placed in a greenhouse as described above and watered by sub-irrigation to prevent wash-off of the test compounds. After 20-22 days, the condition of the test plants as compared with that of the control plants was determined visually and scored on a scale of 0 to 100 percent where 0 corresponds to no injury and 100 corresponds to complete kill.
Colby's equation was used to determine the herbicidal effects expected from the mixtures (Colby, S. R. 1967. Calculation of the synergistic and antagonistic response of herbicide combinations. Weeds 15:20-22.).
The following equation was used to calculate the expected activity of mixtures containing two active ingredients, A and B: Expected=A+B−(A×B/100)

On to `COc1cc(OC)nc(NC(=O)NS(=O)(=O)c2ncccc2C(=O)N(C)C)n1` [Nicosulfuron, 2-[[[[(4,6-dimethoxy-2-pyrimidinyl)amino]carbonyl]amino]sulfonyl]-N,N-dimethyl-3-pyridinecarboxamide, reference compound], for which the pest or weed control at 35 g/ha in test [1] (35 gai/ha) worked out at 75%. The “Visual Weed Control (%) Obs” value turned out to be 80% in [2] (8.75 gai/ha); 30% in test [3] (8.75 gai/ha); 55% in test [3] (17.5 gai/ha); 10% in test [4] (8.75 gai/ha); 60% in test [4] (17.5 gai/ha); 70% in test [4] (35 gai/ha). Moreover, the “Visual Weed Control (%) - 20 DAA ECHOR Obs” value in test [5] (Table 43, 17.5 gai/ha alone) was found to be 0%; in [5] (Table 44, 17.5 gai/ha alone) it was 0%; in [5] (Table 44, 35 gai/ha alone), 50%. The “Visual Weed Control (%) - 20 DAA LEFCH Obs” value in test [6] turned out to be 60%. Further, the “Visual Weed Control (%) - 20 DAA CYPRO Obs” value is 30% in [7] (Table 43, 17.5 gai/ha alone) and 70% in test [7] (Table 43, 35 gai/ha alone).

Turning to `COc1cc(OC)nc(NC(=O)NS(=O)(=O)Nc2ccccc2C(=O)N(C)C)n1` [Orthosulfamuron, 2-[[[[[(4,6-dimethoxy-2-pyrimidinyl)amino]carbonyl]amino]sulfonyl]amino]-N,N-dimethylbenzamide], the pest or weed control at 7.5 g/ha in test [8] (7.5 gai/ha) and in [1] (7.5 gai/ha) was 0% each time. Also, the values for the pest or weed control at 15 g/ha in test [8] (15 gai/ha) and in [1] (15 gai/ha) were 30% and 0%, respectively. The “Visual Weed Control (%) Obs” value was found to be 50% in [2] (7.5 gai/ha); 75% in [2] (15 gai/ha); 65% in [2] (30 gai/ha); 0% in test [4] (7.5 gai/ha); 30% in test [4] (15 gai/ha). Moreover, in test [5] (Table 46, 15 gai/ha alone), the “Visual Weed Control (%) - 21 DAA ECHOR Obs” value worked out at 10%. Besides, the “Visual Weed Control (%) - 20 DAA SCPMA Obs” value was 85% in test [9] (Table 45, 60 gai/ha alone) and 85% in test [9] (Table 46, 60 gai/ha alone).

Consider `COC(=O)c1sccc1S(=O)(=O)NC(=O)Nc1nc(C)nc(OC)n1` [Thifensulfuron-methyl], for which, in test [10], the pest or weed control at 3.75 g/ha turned out to be 35%.

Values taken from US8871681B2, “Herbicidal compositions comprising 4-amino-3-chloro-5-fluoro-6-(4-chloro-2-fluoro-3-methoxyphenyl) pyridine-2-carboxylic acid or a derivative thereof and certain sulfonylureas” (Dow AgroSciences LLC, priority 2012, dated 2014).
